Experimental findings from ChEMBL document CHEMBL1136831, “CRF ligands via Suzuki and Negishi couplings of 3-pyridyl boronic acids or halides with 2-benzyloxy-4-chloro-3-nitropyridine” (Bioorg Med Chem Lett, 2003) are described below.

For orientation: Ki means the dissociation constant of the complex between target and ligand, obtained from inhibition or displacement. Lower therefore signals higher affinity.

SMILES strings stand for the structures. Where only a bound is given, the exact number is not on record here.

The target of the experiment is Corticotropin releasing factor receptor (Rattus norvegicus, UniProt P47866+P35353). The experiment can be described thus: Binding affinity at Corticotropin releasing factor receptor of rat cortical homogenates.
For the molecule `CCc1nc2c(-c3ccc(OC)cc3C)ccnc2n1C(CC)C1CC1` (stereo not drawn), the Ki stood at 0.5 nM. Next, `CCc1nc2c(-c3ccc(OC)nc3C)ccnc2n1C(C)C1CC1` (stereo not drawn): 2 nM; `CCc1nc2c(-c3ccc(Cl)nc3C)ccnc2n1C(CC)C1CC1` (stereo not drawn): 3.3 nM; `CCc1nc2c(-c3ccc(OC)nc3C(F)(F)F)ccnc2n1C(CC)C1CC1` (stereo not drawn): 0.7 nM. The molecule `CCc1nc2c(-c3ccc(OC)nc3C(F)(F)F)ccnc2n1C(C)C1CCC1` (stereo not drawn) displayed a Ki of 0.8 nM.

`CCCC(C)n1c(CC)nc2c(-c3ccc(O)nc3C)ccnc21` (stereo not drawn): the Ki was > 10000 nM.

Take `CCc1nc2c(-c3ccc(OC)nc3C)ncnc2n1C(C1CC1)C1CC1`: the Ki is given as 1.8 nM. Take `CCc1nc2c(-c3ccc(OC)nc3C)ccnc2n1C(C)CC` (stereo not drawn): the Ki stood at 9.2 nM. As for `CCc1nc2c(-c3ccc(OC)nc3C(F)(F)F)ccnc2n1C(CC)CCOC` (stereo not drawn), the Ki is 1.6 nM. `CCc1nc2c(-c3ccc(OC)nc3C)ccnc2n1C(C)C1CCC1` (stereo not drawn): the Ki is 2.1 nM. In turn, `CCc1nc2c(-c3ccc(OC)nc3C(F)(F)F)ccnc2n1C(C)CC` (stereo not drawn) showed a Ki of 0.7 nM. In turn, `CCCC(C)n1c(CC)nc2c(-c3ccc(OC)nc3C)ccnc21` (stereo not drawn) displayed a Ki of 1.1 nM. As to `CCCC(C)n1c(CC)nc2c(-c3ccc(O)nc3C(F)(F)F)ccnc21` (stereo not drawn), the Ki is recorded as 602 nM. In turn, `CCCC(C)n1c(CC)nc2c(-c3ccc(OCCO)nc3C(F)(F)F)ccnc21` (stereo not drawn) yielded a Ki of 10.1 nM. Next, `CCc1nc2c(-c3ccc(OC)cc3C)ncnc2n1C(C1CC1)C1CC1`: 1.9 nM. Take `CCCC(C)n1c(CC)nc2c(-c3ccc(Cl)nc3C)ccnc21` (stereo not drawn): the Ki is on record as 6.6 nM. In turn, `CCCC(C)n1c(CC)nc2c(-c3cnc(OC)cc3C)ccnc21` (stereo not drawn) gave a Ki of 17.1 nM.

`CCc1nc2c(-c3ccc(N(C)C)nc3C)ccnc2n1C(CC)C1CC1` (stereo not drawn) had a Ki of 7.5 nM.
